Values of other authors as cited in patent US20100216994A1, “USE OF NOVEL COMPOUND HAVING AFFINITY FOR AMYLOID, AND PROCESS FOR PRODUCTION OF THE SAME” (NIHON MEDI-PHYSICS CO., LTD., priority 2007, published 2010).

Assays:
[1] = International Publication No. WO03/106439; cited from earlier work
[2] = [^11C]-labeled, rats; cited from earlier work

For `CC(=C(C#N)C#N)c1ccc2cc(N(C)CCF)ccc2c1` [FDDNP, 2-(1-{6-[(2-fluoroethyl)(methyl)amino]-2-naphthyl}ethylidene)malononitrile], the “reverse mutation test result” value [1] is listed as “positive”.

In the case of `CN(C)c1ccc(-c2cn3cc(I)ccc3n2)cc1` [IMPY, 6-iodo-2-[4′-(N,N-dimethylamino)phenyl]imidazo[1,2-a]pyridine], the “reverse mutation test result” value [1] is listed as “positive”.

For `CNc1ccc(/C=C/c2ccc(O)cc2)cc1` [SB-13, (E)-4-methylamino-4′-hydroxystilbene], the “clearance from normal tissues” value [2] is listed as “it cannot be said that the clearance is sufficiently fast”.
